In article PMC12155096 (International Journal of Molecular Sciences, 2025):
Read-outs that look alike come from different tables or passages of the source.

Key:
human CYP2C19 [1] = molecular target: T1, human CYP2C19 (Homo sapiens, UniProt P33261); conditions: for CYP2C19 Efficacy (in parenthesis): human
human CYP1A2 [2] = molecular target: T2, human CYP1A2 (Homo sapiens, UniProt P05177); experiment: biochemical
T2 sequence (P05177 1-516): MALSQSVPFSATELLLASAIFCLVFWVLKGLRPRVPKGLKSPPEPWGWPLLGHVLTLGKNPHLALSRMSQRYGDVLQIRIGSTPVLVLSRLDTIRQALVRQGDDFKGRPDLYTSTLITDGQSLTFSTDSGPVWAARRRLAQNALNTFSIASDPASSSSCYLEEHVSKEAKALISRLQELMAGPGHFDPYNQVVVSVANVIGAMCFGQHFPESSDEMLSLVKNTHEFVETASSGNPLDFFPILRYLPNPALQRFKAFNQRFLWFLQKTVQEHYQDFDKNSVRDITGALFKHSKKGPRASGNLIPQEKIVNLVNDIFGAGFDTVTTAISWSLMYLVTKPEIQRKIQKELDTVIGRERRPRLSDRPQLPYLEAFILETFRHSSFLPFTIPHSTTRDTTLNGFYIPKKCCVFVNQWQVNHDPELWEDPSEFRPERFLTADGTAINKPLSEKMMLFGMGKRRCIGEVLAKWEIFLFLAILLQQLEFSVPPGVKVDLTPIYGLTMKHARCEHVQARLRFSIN

CYP3A4 [3] = molecular target: T3, CYP3A4 (Homo sapiens, UniProt P08684); experiment: biochemical; conditions: for IC50: CYP3A4 IC50 (half-maximal inhibitory concentration)
human CYP2C9 [4] = molecular target: T4, human CYP2C9 (Homo sapiens, UniProt P11712); experiment: P450-Glo CYP2C9 inhibition qHTS
human CYP2D6 [5] = molecular target: T5, human CYP2D6 (Homo sapiens, UniProt P10635); experiment: P450-Glo CYP2D6 inhibition qHTS
[6] = molecular target: Photinus pyralis (firefly) luciferase (Photinus pyralis, UniProt P08659); experiment: biochemical; format: biochemical
human CYP1A2 [7] = molecular target: T2, human CYP1A2
CYP3A4 [8] = molecular target: T3, CYP3A4
human CYP2C9 [9] = molecular target: T4, human CYP2C9; experiment: biochemical
human CYP2C19 [10] = molecular target: T1, human CYP2C19; experiment: biochemical
human CYP2D6 [11] = molecular target: T5, human CYP2D6; experiment: biochemical
human CYP2C19 [12] = molecular target: T1, human CYP2C19; experiment: P450-Glo CYP2C19 inhibition qHTS
human CYP2C9 [13] = molecular target: T4, human CYP2C9; conditions: for CYP2C9 Efficacy (in parenthesis): human
CYP3A4 [14] = molecular target: T3, CYP3A4; experiment: in vitro
human CYP2D6 [15] = molecular target: T5, human CYP2D6; conditions: for CYP2D6 Efficacy (in parenthesis): human
[16] = in vivo; cited from earlier work
[17] = CYP1A2 IC50 (half-maximal inhibitory concentration)
[18] = CYP2C19 IC50 (half-maximal inhibitory concentration)
[19] = CYP2C9 IC50 (half-maximal inhibitory concentration)
[20] = CYP2D6 IC50 (half-maximal inhibitory concentration)

T1 sequence (P33261 whole entry): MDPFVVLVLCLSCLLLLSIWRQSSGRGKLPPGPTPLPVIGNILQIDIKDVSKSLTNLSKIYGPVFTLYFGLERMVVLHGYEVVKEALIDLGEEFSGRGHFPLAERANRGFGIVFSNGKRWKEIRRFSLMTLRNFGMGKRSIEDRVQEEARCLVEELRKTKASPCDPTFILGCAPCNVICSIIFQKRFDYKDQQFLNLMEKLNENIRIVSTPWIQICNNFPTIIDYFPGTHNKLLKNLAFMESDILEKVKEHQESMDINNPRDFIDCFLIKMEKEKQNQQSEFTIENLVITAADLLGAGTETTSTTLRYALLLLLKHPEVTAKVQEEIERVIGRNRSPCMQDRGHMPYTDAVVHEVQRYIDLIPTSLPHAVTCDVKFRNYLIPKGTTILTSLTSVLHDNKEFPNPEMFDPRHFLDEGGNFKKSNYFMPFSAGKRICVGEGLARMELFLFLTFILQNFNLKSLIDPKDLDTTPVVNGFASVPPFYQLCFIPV
T3 sequence (P08684 whole entry): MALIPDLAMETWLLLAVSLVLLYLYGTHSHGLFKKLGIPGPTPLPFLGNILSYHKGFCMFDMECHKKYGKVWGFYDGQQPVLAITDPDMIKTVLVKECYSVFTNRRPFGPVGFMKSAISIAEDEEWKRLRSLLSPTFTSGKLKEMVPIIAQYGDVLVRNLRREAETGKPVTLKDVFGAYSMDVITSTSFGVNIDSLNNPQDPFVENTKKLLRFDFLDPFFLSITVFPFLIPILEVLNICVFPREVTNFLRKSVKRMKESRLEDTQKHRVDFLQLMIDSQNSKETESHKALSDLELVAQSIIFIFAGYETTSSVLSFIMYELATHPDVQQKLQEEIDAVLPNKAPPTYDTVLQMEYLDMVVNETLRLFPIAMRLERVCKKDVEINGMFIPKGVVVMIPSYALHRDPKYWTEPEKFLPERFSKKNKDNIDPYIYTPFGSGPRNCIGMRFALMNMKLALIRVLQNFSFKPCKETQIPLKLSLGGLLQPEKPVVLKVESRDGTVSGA
T5 sequence (P10635 whole entry): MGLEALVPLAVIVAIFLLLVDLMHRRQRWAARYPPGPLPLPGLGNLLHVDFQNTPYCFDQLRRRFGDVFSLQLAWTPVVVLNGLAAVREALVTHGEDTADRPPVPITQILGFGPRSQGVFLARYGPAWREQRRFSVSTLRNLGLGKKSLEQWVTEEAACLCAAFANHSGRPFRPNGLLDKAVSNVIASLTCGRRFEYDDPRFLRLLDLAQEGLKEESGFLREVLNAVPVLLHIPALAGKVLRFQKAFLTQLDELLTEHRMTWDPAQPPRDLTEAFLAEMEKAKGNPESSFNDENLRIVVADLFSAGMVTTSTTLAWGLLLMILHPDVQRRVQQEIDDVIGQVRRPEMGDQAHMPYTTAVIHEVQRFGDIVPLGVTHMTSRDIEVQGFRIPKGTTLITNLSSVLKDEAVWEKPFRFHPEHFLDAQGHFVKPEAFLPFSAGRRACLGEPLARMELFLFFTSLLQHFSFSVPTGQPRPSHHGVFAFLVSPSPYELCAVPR
T4 sequence (P11712 whole entry): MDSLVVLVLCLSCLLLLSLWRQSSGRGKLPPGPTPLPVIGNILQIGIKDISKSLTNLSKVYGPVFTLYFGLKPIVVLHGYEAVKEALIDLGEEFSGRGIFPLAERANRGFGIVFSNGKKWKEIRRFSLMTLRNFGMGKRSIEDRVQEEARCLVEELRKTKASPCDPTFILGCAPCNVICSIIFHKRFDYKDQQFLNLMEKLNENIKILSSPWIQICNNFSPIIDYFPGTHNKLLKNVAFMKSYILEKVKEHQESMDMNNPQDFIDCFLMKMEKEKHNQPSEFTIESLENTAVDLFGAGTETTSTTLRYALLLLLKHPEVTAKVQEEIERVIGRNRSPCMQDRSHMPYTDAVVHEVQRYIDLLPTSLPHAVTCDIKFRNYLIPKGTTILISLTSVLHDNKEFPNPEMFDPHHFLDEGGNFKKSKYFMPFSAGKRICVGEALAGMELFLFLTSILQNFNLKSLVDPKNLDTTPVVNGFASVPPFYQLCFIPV
Chain of Photinus pyralis (firefly) luciferase (P08659 whole entry): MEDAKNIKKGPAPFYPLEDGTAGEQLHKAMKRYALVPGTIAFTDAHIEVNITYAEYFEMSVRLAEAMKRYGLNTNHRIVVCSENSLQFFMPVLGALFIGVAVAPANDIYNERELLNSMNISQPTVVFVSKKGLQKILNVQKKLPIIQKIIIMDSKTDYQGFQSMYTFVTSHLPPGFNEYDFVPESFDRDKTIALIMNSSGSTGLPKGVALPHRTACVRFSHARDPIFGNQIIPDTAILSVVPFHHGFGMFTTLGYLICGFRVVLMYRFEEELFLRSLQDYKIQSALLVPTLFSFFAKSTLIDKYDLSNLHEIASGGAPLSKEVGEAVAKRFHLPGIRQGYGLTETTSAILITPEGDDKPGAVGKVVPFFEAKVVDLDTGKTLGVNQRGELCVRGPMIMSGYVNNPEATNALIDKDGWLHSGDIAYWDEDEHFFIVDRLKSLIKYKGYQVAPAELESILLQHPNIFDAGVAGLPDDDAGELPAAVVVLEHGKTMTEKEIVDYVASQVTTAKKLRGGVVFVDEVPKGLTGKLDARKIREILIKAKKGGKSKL

Compound	Luciferase IC50 (half-maximal inhibitory concentration) [6]	CYP1A2 Efficacy (in parenthesis) (human CYP1A2 [7]; human)	CYP2C9 Efficacy (in parenthesis) (human CYP2C9 [13])	CYP2C19 Efficacy (in parenthesis) (human CYP2C19 [1])	CYP2D6 Efficacy (in parenthesis) (human CYP2D6 [15])	CYP3A4 Efficacy (in parenthesis) (CYP3A4 [8])	IC50 (human CYP1A2 [2]; [17]) [nM]	IC50 (human CYP2C19 [10]; [18]) [nM]	IC50 (CYP3A4 [3]) [nM]	IC50 (human CYP2C9 [9]; [19]) [µM]	IC50 (human CYP2D6 [11]; [20]) [µM]	also measured
CC(C)(c1ccccc1)c1ccccc1 [2,2-Diphenylpropane]												CYP2C19 AC50 (half-maximal activity concentration) (human CYP2C19 [1]): Inactive; AC50 (human CYP1A2 [2]): 58.8 µM; AC50 (CYP3A4 [3]): 34.4 ± 11.7 µM; CYP2C9 AC50 (half-maximal activity concentration) (human CYP2C9 [4]): Inconclusive inhibitor; CYP2D6 AC50 (half-maximal activity concentration) (human CYP2D6 [5]): Inconclusive inhibitor
CSC(=O)c1cccc2nnsc12 [Acibenzolar-S-methyl]	Inactive											CYP1A2 Efficacy (in parenthesis) (human CYP1A2 [7]; mean ± standard deviation from three experiments, negative = inhibition): 0.77 ± 0.11 (-94 ± 7) %; CYP3A4 IC50 (half-maximal inhibitory concentration) (CYP3A4 [8]): Inactive; IC50 (human CYP1A2 [2]): 770 nM; IC50 (human CYP2C9 [9]): 8.65 µM; IC50 (human CYP2C19 [10]): 13200 nM; IC50 (human CYP2D6 [11]): 34.3 µM; CYP2C9 Efficacy (in parenthesis) (human CYP2C9 [4]; human): 8.65 ± 1.19 (-93 ± 9) %; CYP2D6 Efficacy (in parenthesis) (human CYP2D6 [5]; human): 34.28 ± 2.23 (-79 ± 6) %; CYP2C19 Efficacy (in parenthesis) (human CYP2C19 [12]; human): 13.25 ± 2.38 (-133 ± 9) %
C=CCN1C[C@H](C(=O)N(CCCN(C)C)C(=O)NCC)C[C@@H]2c3cccc4[nH]cc(c34)C[C@H]21 [Cabergoline]												Luciferase IC50 [6]: Inactive; CYP1A2 IC50 (human CYP1A2 [7]): Inactive; CYP2C9 IC50 (human CYP2C9 [13]): Inactive; CYP2C19 IC50 (human CYP2C19 [1]): Inactive; IC50 (CYP3A4 [14]): 1020 nM; IC50 (human CYP2D6 [11]; CYP2D6 IC50): 1.47 µM
CN(CC1(C)CCCO1)S(=O)(=O)c1ccc(Cl)c(S(N)(=O)=O)c1 (stereo not drawn) [Mefruside]												CYP1A2 AC50 (half-maximal activity concentration) (human CYP1A2 [7]): Inactive; CYP2D6 AC50 (half-maximal activity concentration) (human CYP2D6 [15]): Inactive; AC50 (human CYP2C9 [9]): 13.3 ± 8.76 µM; AC50 (CYP3A4 [3]): 15.8 ± 3.61 µM; CYP2C19 AC50 (half-maximal activity concentration) (human CYP2C19 [12]): Inconclusive inhibitor
CCOP(=S)(OCC)SCn1c(=O)oc2cc(Cl)ccc21 [Phosalone]		2.98 ± 0.74 (-99 ± 6) %	1.21 ± 0.14 (-101 ± 6) %	0.13 ± 0.05 (-148 ± 13) %	15.88 ± 2.02 (-103 ± 4) %	0.3 ± 0.07 (-85 ± 5) %	2980	130	300			IC50 [6]: 49.6 µM; IC50 (human CYP2C9 [9]): 1.21 µM; IC50 (human CYP2D6 [11]): 15.9 µM
Clc1ccccc1-c1nc(-c2ccncc2)no1 [Pifexole]		0.39 ± 0.12 (-91 ± 4) %	6.98 ± 3.95 (-79 ± 12) %	0.74 ± 0.41 (-105 ± 12) %	20.06 ± 9.42 (-76 ± 17) %	33.57 ± 4.62 (-77 ± 10) %	390	740	33600	6.98	20.1	IC50 [6]: 3.23 µM
CCNP(=S)(OC)O/C(C)=C/C(=O)OC(C)C (stereo not drawn) [Propetamphos]	Inactive	2.25 ± 0.26 (-99 ± 4) %	0.57 ± 0.11 (-102 ± 4) %	0.08 ± 0.01 (-138 ± 6) %	28.38 ± 3.26 (-120 ± 4) %	1.05 ± 0.36 (-88 ± 2) %	2250	80	1050			IC50 (human CYP2C9 [9]): 0.57 µM; IC50 (human CYP2D6 [11]): 28.4 µM
CCCC1COC(Cn2cncn2)(c2ccc(Cl)cc2Cl)O1 (stereo not drawn) [Propiconazole]	Inactive	24.72 ± 6.17 (-104 ± 9) %	2.18 ± 0.37 (-104 ± 6) %	0.52 ± 0.14 (-134 ± 10) %	37.02 ± 2.51 (-73 ± 5) %	0.06 ± 0.02 (-71 ± 3) %	24700	520	60	2.18	37	
COC(=O)N(OC)c1ccccc1COc1ccn(-c2ccc(Cl)cc2)n1 [Pyraclostrobin]		0.99 ± 0.24 (-102 ± 3) %	5.35 ± 1.51 (-104 ± 6) %	0.57 ± 0.25 (-152 ± 29) %	32.63 ± 15.32 (-79 ± 28) %	1.31 ± 0.09 (52 ± 7) %	990	570		5.35	32.6	IC50 [6]: 56.4 µM; CYP3A4 IC50 (half-maximal inhibitory concentration) (CYP3A4 [8]): 1.31 ± 0.09 (52 ± 7) µM; AC50 (human CYP1A2 [2]; CYP1A2 AC50 (half-maximal activity concentration)): 0.99 µM; AC50 (human CYP2C9 [9]; CYP2C9 AC50 (half-maximal activity concentration)): 5.35 µM; AC50 (human CYP2C19 [10]; CYP2C19 AC50 (half-maximal activity concentration)): 570 nM; AC50 (human CYP2D6 [11]; CYP2D6 AC50 (half-maximal activity concentration)): 32.6 µM; AC50 (CYP3A4 [3]; CYP3A4 AC50 (half-maximal activity concentration)): 1.31 µM
CCc1c(C(=O)NN2CCCCC2)nn(-c2ccc(Cl)cc2Cl)c1-c1ccc(Br)cc1 [Surinabant]												CYP1A2 AC50 (half-maximal activity concentration) (human CYP1A2 [7]): Inactive; CYP2D6 AC50 (half-maximal activity concentration) (human CYP2D6 [15]): Inactive; AC50 (human CYP2C9 [9]): 8.32 ± 1.06 µM; AC50 (CYP3A4 [3]): 4.12 ± 1.72 µM; CYP2C19 AC50 (half-maximal activity concentration) (human CYP2C19 [12]): Inconclusive inhibitor
CC(C)(C)C(O)(CCc1ccc(Cl)cc1)Cn1cncn1 (stereo not drawn) [Tebuconazole]	Inactive	31.85 ± 3.66 (-77 ± 8) %	3.3 ± 0.22 (-104 ± 4) %	0.45 ± 0.0 (-115 ± 9) %	34.28 ± 2.23 (-82 ± 7) %	0.21 ± 0.04 (-90 ± 1) %	31900	450	210	3.3	34.3	
FC(F)C(F)(F)OCC(Cn1cncn1)c1ccc(Cl)cc1Cl (stereo not drawn) [Tetraconazole]	Inactive	6.09 ± 0.84 (-101 ± 7) %	1.84 ± 0.12 (-114 ± 7) %	0.02 ± 0.0 (-134 ± 5) %	12.32 ± 3.08 (-113 ± 2) %	0.25 ± 0.06 (-66 ± 2) %	6090	20	250	1.84	12.3	
CCCOC/C(=N\c1ccc(Cl)cc1C(F)(F)F)n1ccnc1 [Triflumizole]	Inactive	9.3 ± 0.63 (-102 ± 6) %	3.92 ± 0.98 (-103 ± 3) %	0.36 ± 0.3 (-125 ± 6) %	34.28 ± 2.23 (-99 ± 9) %	0.21 ± 0.07 (-78 ± 2) %	9300	360	210	3.92	34.3	
COC(=O)[C@@H]1[C@H]2C[C@H]3c4[nH]c5ccccc5c4CCN3C[C@@H]2CC[C@@H]1O [Yohimbine, reference compound]	Inactive											Cmax (maximum plasma concentration) [16]: 75 ng/mL
